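Where inhibition never reached the appropriate level, the endpoint shown equals the highest concentration tested. Otherwise, values were interpolated linearly from a five-concentration, 48-hour dose response in 96-well plates. GI50 is the concentration that inhibits growth by half.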 The source made the active and inactive calls. Rule as the data show it: active = GI50 up to about 1.1 µM and inactive = higher.
Assays:
Experiment in all cases: inhibition of tumour cell growth, NCI panel, 48 h
[1] = tested on: DMS-114
[2] = tested on: SNB-78
[3] = tested on: KM-20L2
[4] = tested on: LXFL 529
[5] = tested on: M19-MEL
[6] = tested on: HOP-18
[7] = tested on: XF498
[8] = tested on: RXF 631
[9] = tested on: DMS-273

In the case of NNC(=O)C(=O)N/N=C1\CCCC1C(=O)CCC(=O)Nc1cccc(Cl)c1 (stereo unspecified), the GI50 [1] was > 100 µM (inactive), the GI50 [2] was > 100 µM (inactive) and the GI50 [3] was > 100 µM (inactive). The GI50 [4] was > 100 µM (inactive), the GI50 [5] was > 100 µM (inactive) and the GI50 [6] was > 100 µM (inactive). The GI50 [7] was > 100 µM (inactive) and the GI50 [8] was > 100 µM (inactive).

For O=C(c1ccccc1)C(c1ccccc1)C1(O)C(=O)Nc2c(Cl)cc(Cl)cc21 (stereo unspecified), the GI50 [1] was 16.5 µM (inactive), the GI50 [2] was 24.7 µM (inactive) and the GI50 [9] was 27.4 µM (inactive). For the same compound, the GI50 [3] was 36.8 µM (inactive), the GI50 [4] was 11.4 µM (inactive) and the GI50 [6] was 14.9 µM (inactive). The GI50 [7] was > 100 µM (inactive) and the GI50 [8] was 18.9 µM (inactive).

In the case of CCN(CC)CCOC(c1ccccc1)c1ccccc1.CCOC(=O)Nc1ccc(S(=O)(=O)NCCCl)cc1.CCOC(=O)Nc1ccc(S(=O)(=O)NCCCl)cc1.Nc1ccc(C(=O)O)c(O)c1, the GI50 [1] was > 100 µM (inactive), the GI50 [2] was > 100 µM (inactive) and the GI50 [3] was > 100 µM (inactive). The GI50 [4] was > 100 µM (inactive), the GI50 [5] was > 100 µM (inactive) and the GI50 [6] was > 100 µM (inactive). For the same compound, the GI50 [8] was > 100 µM (inactive).

For O=C(O)/C=C\C(=O)Nc1ccc(S(=O)(=O)c2ccc(NC(=O)/C=C\C(=O)O)cc2)cc1, the GI50 [1] was > 100 µM (inactive), the GI50 [2] was > 100 µM (inactive) and the GI50 [3] was > 100 µM (inactive). The GI50 [4] was > 100 µM (inactive), the GI50 [5] was 45 µM (inactive) and the GI50 [7] was > 100 µM (inactive).

With O.O=C([O-])c1ccccc1Nc1ccccc1C(=O)[O-].[Zn+2] the GI50 [1] was 17.5 µM (inactive), the GI50 [2] was 37.2 µM (inactive) and the GI50 [9] was 15.7 µM (inactive). The GI50 [3] was 94 µM (inactive), the GI50 [4] was 22.1 µM (inactive) and the GI50 [5] was 17.3 µM (inactive). The GI50 [6] was > 52.6 µM (inactive) and the GI50 [7] was 25.1 µM (inactive).

In the case of O=C1c2ccccc2C(=O)c2c(/C=C\N3CCCCC3)ccnc21, the GI50 [1] was 0.813 µM (active), the GI50 [2] was 18.7 µM (inactive) and the GI50 [9] was 2.3 µM (inactive). For the same compound, the GI50 [3] was 15.5 µM (inactive), the GI50 [4] was 0.377 µM (active) and the GI50 [5] was 0.237 µM (active). The GI50 [6] was 1.25 µM (inactive), the GI50 [7] was 11.1 µM (inactive) and the GI50 [8] was 8.22 µM (inactive).

N=C(N)C1=C(O)NC(=O)N(C2CCCCC2)C1 was tested, and the GI50 [1] was > 100 µM (inactive), the GI50 [2] was > 100 µM (inactive) and the GI50 [9] was > 100 µM (inactive). For the same compound, the GI50 [3] was > 100 µM (inactive), the GI50 [4] was > 100 µM (inactive) and the GI50 [5] was > 100 µM (inactive). For the same compound, the GI50 [6] was > 100 µM (inactive).

For C=C(OC1C(C)=C2C(C1OC(=O)CCCCCCC)C(C)(OC(C)=O)CC(OC(=O)CCC)C1(O)C2OC(=O)C1(C)O)/C(C)=C/C (stereo unspecified), the GI50 [1] was 0.0125 µM (active), the GI50 [2] was 0.015 µM (active) and the GI50 [9] was 0.0125 µM (active). For the same compound, the GI50 [3] was 0.0314 µM (active), the GI50 [5] was 0.0125 µM (active) and the GI50 [6] was 0.0125 µM (active). For the same compound, the GI50 [7] was 0.348 µM (active).

For CN(CCO)c1nc(=O)c2c(n1C1OC(CO)C(O)C(O)C1O)CCCC2 (stereo unspecified), the GI50 [1] was > 100 µM (inactive), the GI50 [2] was > 100 µM (inactive) and the GI50 [9] was > 100 µM (inactive). The GI50 [3] was > 100 µM (inactive), the GI50 [4] was > 100 µM (inactive) and the GI50 [5] was > 100 µM (inactive). For the same compound, the GI50 [6] was > 100 µM (inactive) and the GI50 [7] was > 100 µM (inactive).

For O=Cc1c[nH]c2c(=O)[nH]cnc12, the GI50 [1] was > 100 µM (inactive), the GI50 [2] was > 100 µM (inactive) and the GI50 [4] was > 100 µM (inactive). For the same compound, the GI50 [5] was > 100 µM (inactive) and the GI50 [6] was > 100 µM (inactive).

With COc1cc2nncc(Sc3cnnc4ccccc34)c2cc1OC the GI50 [1] was 9.95 µM (inactive), the GI50 [2] was 6 µM (inactive) and the GI50 [9] was 29.7 µM (inactive). For the same compound, the GI50 [3] was 25.6 µM (inactive), the GI50 [4] was 9.79 µM (inactive) and the GI50 [5] was 30.7 µM (inactive). The GI50 [6] was 16.5 µM (inactive) and the GI50 [8] was 23 µM (inactive).

For C/C(=N\[N+](C)(C)C)C(c1ccccc1)C1(c2ccccc2)C(c2ccccc2)=C1c1ccccc1 (stereo unspecified), the GI50 [2] was 50.5 µM (inactive), the GI50 [9] was > 100 µM (inactive) and the GI50 [3] was > 100 µM (inactive). The GI50 [5] was > 100 µM (inactive) and the GI50 [7] was 22.6 µM (inactive).

In the case of Cn1cc(NC(=O)c2cc(NC(=O)CCCCCCC(=O)Nc3cc(C(=O)Nc4cc(C(=O)NCCC(=N)N)n(C)c4)n(C)c3)cn2C)cc1C(=O)NCCC(=N)N, the GI50 [1] was 2.47 µM (inactive), the GI50 [2] was 24.2 µM (inactive) and the GI50 [9] was 3.82 µM (inactive). For the same compound, the GI50 [3] was > 100 µM (inactive), the GI50 [4] was 5.92 µM (inactive) and the GI50 [5] was 2.82 µM (inactive). For the same compound, the GI50 [6] was 15.5 µM (inactive) and the GI50 [7] was 34.9 µM (inactive).

In the case of Cc1ccc(C(=O)O)cc1NC(=O)c1cc(/C=C/c2ccccc2)[nH]c(=S)n1, the GI50 [1] was > 57 µM (inactive), the GI50 [2] was > 100 µM (inactive) and the GI50 [9] was > 57.4 µM (inactive). For the same compound, the GI50 [3] was > 100 µM (inactive), the GI50 [4] was > 84.5 µM (inactive) and the GI50 [6] was > 100 µM (inactive). The GI50 [7] was > 100 µM (inactive) and the GI50 [8] was > 100 µM (inactive).

In the case of O=C(N/C=C/C=C/Sc1ccccc1)OCc1ccccc1, the GI50 [1] was 16.6 µM (inactive), the GI50 [2] was 40.2 µM (inactive) and the GI50 [9] was 16.6 µM (inactive). The GI50 [3] was 17.2 µM (inactive), the GI50 [4] was 17.1 µM (inactive) and the GI50 [5] was 17.2 µM (inactive). For the same compound, the GI50 [6] was 28.1 µM (inactive), the GI50 [7] was 20.4 µM (inactive) and the GI50 [8] was 19.1 µM (inactive).

With COCN1C(=O)C2CC(/C=C/C(N)=O)=CN2C(=O)c2ccccc21 (stereo unspecified) the GI50 [1] was > 100 µM (inactive), the GI50 [2] was > 100 µM (inactive) and the GI50 [9] was > 100 µM (inactive). The GI50 [3] was > 100 µM (inactive), the GI50 [4] was > 100 µM (inactive) and the GI50 [5] was > 100 µM (inactive). The GI50 [6] was > 100 µM (inactive) and the GI50 [7] was > 100 µM (inactive).

In the case of NC(=O)c1nnn(Cc2cc(Cl)c(C(=O)c3ccc(Cl)cc3)c(Cl)c2)c1N [CARBOXYAMIDOTRIAZOLE], the GI50 [1] was 6.1 µM (inactive), the GI50 [2] was > 9.1 µM (inactive) and the GI50 [9] was > 9.1 µM (inactive). The GI50 [3] was > 9.1 µM (inactive), the GI50 [4] was > 9.1 µM (inactive) and the GI50 [5] was > 9.1 µM (inactive). The GI50 [6] was > 9.1 µM (inactive), the GI50 [7] was > 9.1 µM (inactive) and the GI50 [8] was 11.7 µM (inactive).

For C#CCn1c(=O)c2cccnc2n(CC#C)c1=O, the GI50 [2] was > 100 µM (inactive), the GI50 [9] was > 100 µM (inactive) and the GI50 [4] was > 100 µM (inactive). For the same compound, the GI50 [6] was > 100 µM (inactive) and the GI50 [7] was > 100 µM (inactive).

N#CC(NNC(=O)c1ccccc1O)c1cccc(O)c1 (stereo unspecified) was tested, and the GI50 [1] was 3.61 µM (inactive), the GI50 [2] was 4.89 µM (inactive) and the GI50 [9] was 2.32 µM (inactive). The GI50 [3] was 33.7 µM (inactive), the GI50 [4] was 4.31 µM (inactive) and the GI50 [6] was 35.3 µM (inactive).

With c1ccc2c3c([nH]c2c1)[C@H]1C2CCCCN2CN1CC3 (stereo partly specified) the GI50 [1] was 47.8 µM (inactive), the GI50 [2] was 94.4 µM (inactive) and the GI50 [9] was > 100 µM (inactive). The GI50 [3] was > 100 µM (inactive), the GI50 [4] was > 100 µM (inactive) and the GI50 [5] was > 100 µM (inactive). The GI50 [6] was > 100 µM (inactive), the GI50 [7] was > 100 µM (inactive) and the GI50 [8] was > 100 µM (inactive).

In the case of CC1=NN(C(=O)c2ccc(Cl)cc2)C(=O)/C1=C/c1cccc(O)c1, the GI50 [1] was > 100 µM (inactive), the GI50 [2] was > 100 µM (inactive) and the GI50 [3] was > 100 µM (inactive). The GI50 [4] was > 100 µM (inactive) and the GI50 [5] was > 100 µM (inactive).

In the case of COc1ccc(-c2cc(C(=O)Nc3ccc(C)c(C)c3)nc(NC#N)n2)cc1, the GI50 [1] was > 100 µM (inactive), the GI50 [2] was > 100 µM (inactive) and the GI50 [9] was > 100 µM (inactive). The GI50 [3] was > 100 µM (inactive), the GI50 [4] was > 100 µM (inactive) and the GI50 [5] was > 100 µM (inactive). The GI50 [6] was 0.562 µM (active) and the GI50 [7] was > 100 µM (inactive).

Cc1ccc(S(=O)(=O)C(C#N)c2nc3ccccc3nc2N2CCOCC2)cc1 (stereo unspecified) was tested, and the GI50 [1] was 22.5 µM (inactive), the GI50 [2] was 3.09 µM (inactive) and the GI50 [9] was 17.8 µM (inactive). The GI50 [3] was 33.4 µM (inactive), the GI50 [4] was 27.9 µM (inactive) and the GI50 [5] was 26.7 µM (inactive). The GI50 [7] was 24.3 µM (inactive).

In the case of Cc1oc2c(C)c3oc(=O)cc(C)c3cc2c1CNC(=O)[C@@H]1OCCOCCOCCOCCOCCOC1C(=O)O (stereo partly specified), the GI50 [1] was > 100 µM (inactive), the GI50 [2] was > 100 µM (inactive) and the GI50 [9] was > 100 µM (inactive). For the same compound, the GI50 [3] was > 100 µM (inactive), the GI50 [4] was 8.15 µM (inactive) and the GI50 [5] was > 100 µM (inactive). The GI50 [6] was > 100 µM (inactive), the GI50 [7] was > 10 µM (inactive) and the GI50 [8] was 36.1 µM (inactive).

For N#Cc1cccc(-n2[nH]c(=O)ccc2=O)c1, the GI50 [1] was > 100 µM (inactive), the GI50 [9] was > 100 µM (inactive) and the GI50 [3] was > 100 µM (inactive). The GI50 [4] was > 100 µM (inactive) and the GI50 [5] was > 100 µM (inactive).

For c1cc(-c2cn3ccsc3n2)ccn1, the GI50 [1] was > 66.5 µM (inactive), the GI50 [2] was > 100 µM (inactive) and the GI50 [9] was 32.7 µM (inactive). For the same compound, the GI50 [3] was > 31.6 µM (inactive), the GI50 [4] was > 100 µM (inactive) and the GI50 [5] was > 60.5 µM (inactive). The GI50 [6] was > 100 µM (inactive), the GI50 [7] was > 100 µM (inactive) and the GI50 [8] was > 100 µM (inactive).
